Assay results as given in patent publication US20210153484A1, “Humanized Mouse Model” (The Wistar lnstitute, priority 2018, published 2021).
“Also recorded” adds a separate entry of the source.

Legend:
human γ/δ+ T-cells = assay: Human T γ/δ cells in reconstituted Hu-mice treated with HMBPP (IHC); format: in vivo, mouse; conditions: HMBPP 50 mg/kg i.p.
Excerpt: FIGS. 6A-6C illustrate the human immune subpopulation in spleen, thymus, lymph node, small intestines (SI) and lungs of humanized mice. […] Mouse SI and lungs show presence of IgA+ and IgE+ cells (left and right panels) as determined by mouse anti-human IgA or […] antibodies. Minimal staining of mouse cells was observed when the tissue sections were stained with anti-mouse specific antibodies (See FIG. 23). […] Mouse spleen (left panels; a), thymus (middle panels) and mesenteric lymph nodes (right panels) show presence of CD4+ (top panels) and CD8+ (bottom panels) T-cells as determined by IHC staining using anti-human CD4 or CD8 antibodies. […] Presence of T γ/δ cells were determined in a IHC staining by using mouse anti-human TcR γ/δ antibody.
Besides the presence of human CD45+ cells, the presence of monocytes/myeloid lineage cells HLA DR+, CD33+, CD15+, CD11b+ and CD14+ was observed (FIG. 5D). […] B-cells are fully functional, as antigen specific IgG were detected in circulating blood (see anti-hTERT response below), and IgA and IgE with unknown specificity in the mucosal layers of small intestines and the lungs (FIG. 6B, FIG. 23). Human CD4+ and CD8+ subpopulations of T-cells were detected in spleen, thymus and mesenteric lymph node tissues (FIG. 6C). […]

[1] = tested on: tumor-infiltrating immune cells; assay: IHC, MassCyTOF and RNA-seq/CIBERSORT analysis of tumors from anti-PD1 treated Hu-mice; format: in vivo, mouse
Method: (§1) IHC staining was performed as previously described (Somasundaram et al 2017). Briefly, tissue sections were subjected to antigen retrieval by incubation with Target Retrieval Solution (Citrate [S1699] or Tris-EDTA buffers [S2367]; Agilent-DAKO, Santa Clara, Calif.) kit at 95° C. for 20 min and subsequently incubated with primary antibodies with optimum dilutions (FOXP3 [1:10]; CD4, HLA class I, HMB45 and mast cell tryptase [all at 1:100 dilution]; CD68, IgA and IgE [all at 1:400 dilution] and CD8 [1:500 dilution]. For detection of primary antibodies slides were incubated with anti-mouse, anti-rat or anti-rabbit antibodies at 1:1000 dilution and visualized by DAB (SK-4100) or AEC (SK-4200; both Vector Laboratories, Burlingame, Calif.) chromogens.
CyTOF staining was performed as previously described (Wang et al 2019). Briefly, carrier-free antibodies were commercially obtained and tagged with lanthanide metals using the Maxpar X8 metal conjugation kit from Fluidigm^R (201300, Ontario, Canada). Antigen retrieval was performed on deparaffinized tissue sections at 95° C. for 30 min in Tris/EDTA buffer, slides were cooled, blocked with 3% BSA-PBS solution and incubated with cocktail of antibodies (100 ul) overnight at 4° C. Next day slides were washed 3× with PBS and labeled with 1:400 dilution of Intercalator-Ir (Fluidigm 201192B) in PBS for 30 min at RT. Slides were washed with water (3×) and air dried for 30 mins before image mass cytometry acquisition using Fluidigm Hyperion Imaging System.
RNAseq was done using ScriptSeq RNA-seq library preparation kit (Illumina, [BHMR1205], San Diego, Calif.). Quality control of RNA and DNA library was done using the Tapestation 4200 and Bioanalyzer 2100 system (Agilent, Santa Clara, Calif.). Library quantification was done using the Kapa Library Quantification qPCR kit (Roche, [KK4854], Pleasanton, Calif.) and subjected to a 75 bp paired-end sequencing run on Illumina's NExtSeq 500 high output kit following the manufacturer's protocol. RNA-seq analysis was performed using RSEM v1.2.12 software and downstream expression analysis was done using Differential2 (Shuai Wu et al. Nature Commun. 2018; 9: 4166). RNA-seq data was used to enumerate tumor-infiltrating leukocytes using CIBERSORT, an analytical tool available online (cibersort.stanford.edu) (Chen et al. Methods Mol. Biol. 2018; 1711:243-259).
In order to understand the phenomenon of mixed therapy responses to anti-PD1 treatment, IHC, multiplexed imaging using MassCyTOF and RNA-seq was performed on tumors obtained from anti-PD1 treated Hu-mice and they were compared with control Ig treated mice. […]

mast cells in tumor = assay: Mast cell immunostaining of melanoma patients' tumors after anti-PD1 therapy; format: in vivo, human; conditions: compared to untreated individuals
Method: as §1

[2] = tested on: A375 [HLA-A2] melanoma cells; assay: Anti-PD1 therapy in Hu-mice melanoma model, A375 tumors; format: in vivo, mouse; conditions: anti-PD1 10 mg/kg i.p. weekly
Method: (§2) FIGS. 8A-8H illustrate functional characterization of human immune cells in humanized mice. FIGS. 8A-8C show T- and B-cell response to hTERT vaccine. FIG. 8A is a schema for hTERT DNA vaccination. Hu-mice received a total of 3 injections of hTERT vaccine (hTERT DNA [50 μg; i.m] followed by electroporation) every 2 weeks and the mice were sacrificed 1 week after the last injection to determine T- and B-cell responses. […] Spleen cells from Hu-mice (n=3) were stimulated overnight (18 h) with pools of overlapping hTERT peptides (15 mer; 2 μg/ml/peptide) spanning the entire hTERT protein. Human IFNγ was detected in ELISPOT assay using a kit. […] Endpoint binding titer was determined in sera of hTERT vaccinated mice after 3 immunizations and compared to sera from NSG mice as controls. […] Tumor growth measurements are recorded using digital caliper by an independent researcher. […]
(§3) All animal experiments were performed according to protocols approved by the Wistar Institute's Institutional Animal Care and User Committee (IACUC). […] Six to 8 weeks (>50 days) later, presence of human immune cells was monitored by multi-color flow cytometry using 18 color BD LSR II Analyzer (BD Biosciences; Somasundaram et al. Nat. Commun. 2017, 8(1):607). […] Tumors were measured twice a week using digital calipers.

451LU melanoma = assay: Anti-PD1 therapy in Hu-mice melanoma model, aggressively growing 451LU tumors; format: in vivo, mouse
Method: All animal experiments were performed according to protocols approved by the Wistar Institute's Institutional Animal Care and User Committee (IACUC). NOD/LtSscidIL2Rγ^null (NSG) mice were inbred at The Wistar Institute under license from the Jackson Laboratory. For humanization, fetal liver and thymus were obtained from the same donor (18-22 weeks of gestation). NSG mice (6 to 8 weeks) received thymus graft (1 mm^3) in sub-renal capsule 24 h post myeloablation using Busulfan (30 mg/kg, i.p.; Sigma-Aldrich [B2635], St. Louis, Mo.). This is immediately followed by injection of autologous liver-derived CD34^+ hematopoietic stem cells (10^5 cells/mouse, i.v., FIG. 5A) that was magnetically sorted by microbeads conjugated with anti-human CD34 (Miltenyi Biotec., [130-046-703], Auburn, Calif.; Chen et al. Bio Protoc. (2013) 3(23)). Six to 8 weeks (>50 days) later, presence of human immune cells was monitored by multi-color flow cytometry using 18 color BD LSR II Analyzer (BD Biosciences; Somasundaram et al. Nat. Commun. 2017, 8(1):607). To accelerate human immune cell reconstitution mice received AAV8 encoding human IL-3, IL-7 and GM-CSF (FIG. 5; FIG. 20A; 10^8; iv; Wu, . . . Ertl., et al 2013). […] Tumors were measured twice a week using digital calipers.

[3] = tested on: WM3629 [HLA-A3] melanoma cells; assay: Anti-PD1 therapy in Hu-mice melanoma model, WM3629 tumors; format: in vivo, mouse; conditions: anti-PD1 10 mg/kg i.p. weekly
Method: as §2, §3

[4] = compared to control IgG or non-reconstituted NSG mice treated with anti-PD1, listed as Anti-PD1 antibody
[5] = compared to control IgG or non-reconstituted NSG mice treated with anti-PD1, listed as anti-PD1 antibody

Row | Compound | human T γ/δ cells in tissues (human γ/δ+ T-cells) | immune (leukocyte) infiltration in tumor sections ([1]; H&E/IHC, compared to control IgG treated / untreated Hu-mice) | transcription of chemokine genes (CCL2, CCL3, CCL4, CCLS, CXCL9, CXCL10 and CXCL11) ([1]; RNA-seq of tumors after anti-PD1 treatment) | mast cell numbers in tumors (mast cell tryptase IHC) ([1]; compared to control Ig treated mice) | tumor resident mast cells / mast related genes by CIBERSORT of RNA-seq data ([1]; tumors from Hu-mice with and without anti-PD1) | mast cells in melanoma patients' tumor (mast cells in tumor) | tumor growth of A375 melanoma [2, 4] | tumor growth of A375 melanoma [2, 5] | immune infiltrating cells by IHC staining (451LU melanoma; 451Lu tumors in Hu-mice after anti-PD1) | tumor growth of 451LU melanoma (451LU melanoma; Hu-mice, aggressively growing metastatic melanoma) | tumor growth of WM3629 melanoma [3, 4] | tumor growth of WM3629 melanoma [3, 5]
1 | C/C(=C\COP(=O)(O)OP(=O)(O)O)CO [HMBPP, hydroxy-2-methyl-2-butenyl 4-pyrophosphate] | further expanded |  |  |  |  |  |  |  |  |  |  | 
2 | anti-PD1: anti-PD-1 antibody (Keytruda, Merck, Rahway, N.J.) |  | Higher levels of immune infiltration; also recorded: dense leukocyte infiltration | higher transcription | increased numbers | higher presence of tumor resident mast cells; also recorded: higher expression of mast related genes | increased presence of mast cells | restrict tumor growth | significantly restricted tumor growth | No immune infiltrating cells were detected | negligible effect on growth; also recorded: unable to restrict tumor growth | restrict tumor growth | significantly restricted tumor growth
